# From patent publication US20110190365A1, “Insecticidal 4-phenyl-1H-pyrazoles” (Bayer Crop Science AG, priority 2008, published 2011)
# Assay: log P by HPLC on a reversed-phase column (C18), EEC Directive 79/831 Annex V.A8
# Type: physicochemical
# Conditions: HCOOH
# Description: The stated log P values were determined in accordance with EEC Directive 79/831 Annex V.A8 by HPLC (High Performance Liquid Chromatography) using a reversed-phase column (C18).
row,SMILES,log P (HCOOH)
1,COC(=O)CC(NC(=O)c1ccc(-n2nc(C(F)(F)F)c(-c3cc(Cl)cc(Cl)c3)c2N)cc1C)c1ccccn1 (stereo not shown) [I-A-Q2-057],I-A-Q2-057: log P (HCOOH): 2.72
2,CSc1c(-c2cc(Cl)cc(Cl)c2)c(C(F)(F)F)nn1-c1ccc(C(=O)NCc2ncccn2)c(C)c1 [I-A-Q2-276],I-A-Q2-276: log P (HCOOH): 4.50
3,Cc1cc(-n2nc(C(F)(F)F)c(-c3cc(Cl)cc(Cl)c3)c2N)ccc1C(=O)NCc1ccc(F)cn1 [I-A-Q2-039],I-A-Q2-039: log P (HCOOH): 3.94
4,Cc1cc(-n2nc(C(F)(F)F)c(-c3cc(Cl)cc(Cl)c3)c2N)ccc1C(=O)NCCC(F)=C(F)F [I-A-Q2-061],I-A-Q2-061: log P (HCOOH): 4.45
5,Cc1cc(-n2nc(C(F)(F)F)c(-c3cc(Cl)cc(Cl)c3)c2I)ccc1C(=O)NCc1ncccn1 [I-A-Q2-275],I-A-Q2-275: log P (HCOOH): 4.47
6,Nc1c(-c2cccc(Br)c2)c(C(F)(F)F)nn1-c1ccc(C(=O)NC2CC2)cc1 [I-A-Q2-173],I-A-Q2-173: log P (HCOOH): 3.11
7,CC(NC(=O)c1ccc(-n2nc(C(F)(F)F)c(-c3cc(Cl)cc(Cl)c3)c2N)nc1)C(F)(F)F (stereo not shown) [I-A-Q2-100],I-A-Q2-100: log P (HCOOH): 4.96
8,CC(NC(=O)c1ccc(-n2nc(C(F)(F)F)c(-c3ccccc3Cl)c2N)cc1)c1ccccc1 (stereo not shown) [I-A-Q2-081],I-A-Q2-081: log P (HCOOH): 3.58
9,Cc1cc(-n2nc(C(F)(F)F)c(-c3cc(Cl)cc(Cl)c3)c2N)ccc1C(=O)NCCOC(C(F)(F)F)C(F)(F)F [I-A-Q2-048],I-A-Q2-048: log P (HCOOH): 4.70
10,COc1cc(OC)nc(CNC(=O)c2ccc(-n3nc(C(F)(F)F)c(-c4cc(Cl)cc(Cl)c4)c3N)cc2C)n1 [I-A-Q2-255],I-A-Q2-255: log P (HCOOH): 4.40
11,COC(=O)c1ccc(-n2nc(C(F)(F)F)c(Br)c2N)cc1C [XI-A-082],XI-A-082: log P (HCOOH): 3.52
12,C=CCNC(=O)c1ccc(-n2nc(C(F)(F)F)c(-c3cc(Cl)cc(Cl)c3)c2N)nc1 [I-A-Q2-104],I-A-Q2-104: log P (HCOOH): 4.46
13,Cc1cc(-n2nc(C)c(-c3cc(Cl)ccc3Cl)c2N)ccc1C(=O)NCC(F)(F)C(F)F [I-A-Q2-335],I-A-Q2-335: log P (HCOOH): 3.04
14,Cc1cc(-n2nc(C(F)(F)F)c(-c3cc(Cl)cc(Cl)c3)c2Br)ccc1C(=O)NCc1ccccn1 [I-A-Q2-023],I-A-Q2-023: log P (HCOOH): 4.91
15,CC(=O)Nc1c(-c2cc(Cl)cc(Cl)c2)c(C(F)(F)F)nn1-c1ccc(C(=O)NCc2ccccn2)c(C)c1 [I-A-Q2-197],I-A-Q2-197: log P (HCOOH): 2.76
16,Nc1c(-c2ccc(F)c(F)c2)c(C(F)(F)F)nn1-c1ccc(C(=O)NC2CC2)cc1 [I-A-Q2-176],I-A-Q2-176: log P (HCOOH): 2.89
17,Cc1cc(-n2nc(C(F)(F)F)c(-c3cc(Cl)cc(Cl)c3)c2N)ccc1C(=O)NCc1ncc[nH]1 [I-A-Q2-034],I-A-Q2-034: log P (HCOOH): 1.94
18,Cc1cc(-n2nc(C(F)(F)F)c(-c3ccc(Cl)c(Cl)c3)c2N)ccc1C(=O)NCC(F)(F)C(F)F [I-A-Q2-304],I-A-Q2-304: log P (HCOOH): 4.00
19,Cc1cc(-n2nc(C(F)(F)F)c(-c3ccccc3Br)c2N)ccc1C(=O)NCC1CC1 [I-A-Q2-422],I-A-Q2-422: log P (HCOOH): 3.41
20,CC(NC(=O)c1ccc(-n2nc(C(F)(F)F)c(-c3cccc(F)c3)c2N)cc1)C(F)(F)F (stereo not shown) [I-A-Q2-182],I-A-Q2-182: log P (HCOOH): 3.33
21,Cc1cc(-n2nc(C(F)(F)F)c(-c3ccc(F)c(F)c3)c2N)ccc1C(=O)NCC(F)(F)C(F)F [I-A-Q2-312],I-A-Q2-312: log P (HCOOH): 3.42
22,Cc1cc(-n2nc(C)c(-c3cc(Cl)ccc3Cl)c2N)ccc1C(=O)NCc1ccccn1 [I-A-Q2-375],I-A-Q2-375: log P (HCOOH): 2.04

row,SMILES,log P (HCOOH)
1,CSCC(C)NC(=O)c1ccc(-n2nc(C(F)(F)F)c(-c3cc(Cl)cc(Cl)c3)c2N)cc1C (stereo not shown) [I-A-Q2-279],I-A-Q2-279: log P (HCOOH): 4.43
2,Cc1cc(-n2nc(C(F)(F)F)c(-c3cc(Cl)cc(Cl)c3)c2N)ccc1C(=O)NCC1CCCCC1 [I-A-Q2-263],I-A-Q2-263: log P (HCOOH): 5.08
3,Cc1cc(-n2nc(C(F)(F)F)c(-c3ccc(Cl)c(F)c3)c2N)ccc1C(=O)NCc1ccccn1 [I-A-Q2-353],I-A-Q2-353: log P (HCOOH): 2.84
4,Cc1cc(-n2nc(C(F)(F)F)c(-c3cc(Cl)cc(Cl)c3)c2N)ccc1C(=O)N(C)Cc1ccccn1 [I-A-Q2-110],I-A-Q2-110: log P (HCOOH): 2.69
5,Nc1c(-c2ccccc2Cl)c(C(F)(F)F)nn1-c1ccc(C(=O)NCc2ncccn2)cc1 [I-A-Q2-080],I-A-Q2-080: log P (HCOOH): 2.38
6,Cc1cc(-n2nc(C)c(-c3c(F)cc(F)cc3F)c2N)ccc1C(=O)NCC(F)(F)C(F)F [I-A-Q2-328],I-A-Q2-328: log P (HCOOH): 2.48
7,Nc1c(-c2ccc(Cl)c(Cl)c2)c(C(F)(F)F)nn1-c1ccc(C(=O)NC2CC2)cc1 [I-A-Q2-157],I-A-Q2-157: log P (HCOOH): 3.51
8,Cc1cc(-n2nc(C(F)(F)F)c(-c3cc(Cl)cc(Cl)c3)c2N)ccc1C(=O)NCC(F)(F)Br [I-A-Q2-268],I-A-Q2-268: log P (HCOOH): 4.45
9,Cc1cc(-n2nc(C(F)(F)F)c(-c3cc(Cl)cc(Cl)c3)c2N)ccc1C(=O)NCc1ncc(F)cc1F [I-A-Q2-278],I-A-Q2-278: log P (HCOOH): 4.30
10,Cc1cc(-n2nc(C(F)(F)F)c(-c3cc(Cl)cc(Cl)c3)c2N)ccc1C(=O)NCc1cccc(Cl)c1 [I-A-Q2-215],I-A-Q2-215: log P (HCOOH): 4.76
11,Cc1cc(-n2nc(C(F)(F)F)c(-c3ccccc3C)c2N)ccc1C(=O)NCC(F)(F)C(F)F [I-A-Q2-317],I-A-Q2-317: log P (HCOOH): 3.32
12,Cc1cc(-n2nc(C(F)(F)F)c(-c3cc(Cl)cc(Cl)c3)c2N)ccc1C(=O)NC1CCCC1 [I-A-Q2-223],I-A-Q2-223: log P (HCOOH): 4.45
13,CSc1cc(-n2nc(C(C)(C)C)c(-c3cc(Cl)cc(Cl)c3)c2N)ccc1C(=O)NCc1ccccn1 [I-A-Q2-408],I-A-Q2-408: log P (HCOOH): 3.68
14,CCc1nn(-c2ccc(C(=O)NCc3ccccn3)c(C)c2)c(N)c1-c1ccc(Cl)cc1 [I-A-Q2-379],I-A-Q2-379: log P (HCOOH): 2.20
15,Cc1cc(-n2nc(-c3ccccc3)c(-c3ccc(Cl)cc3)c2N)ccc1C(=O)NCc1ccccn1 [I-A-Q2-377],I-A-Q2-377: log P (HCOOH): 2.80
16,Cc1cc(-n2nc(C(F)(F)F)c(-c3ccc(Cl)cc3Cl)c2N)ccc1C(=O)NCc1ccccn1 [I-A-Q2-348],I-A-Q2-348: log P (HCOOH): 2.84
17,CNC(=O)c1ccc(-n2nc(C(F)(F)F)c(-c3ccc(Cl)cc3)c2N)cc1 [I-A-Q2-195],I-A-Q2-195: log P (HCOOH): 2.96
18,Cc1cc(-n2nc(C)c(-c3ccc(Cl)c(Cl)c3)c2N)ccc1C(=O)NCc1ccccn1 [I-A-Q2-365],I-A-Q2-365: log P (HCOOH): 2.27
19,Cc1cc(-n2nc(C(F)(F)F)c(-c3ccc(F)c(F)c3)c2N)ccc1C(=O)NCc1ccccn1 [I-A-Q2-355],I-A-Q2-355: log P (HCOOH): 2.50
20,Cc1cc(-n2nc(C(F)(F)F)c(-c3cc(Cl)cc(Cl)c3)c2N)ccc1C(=O)NC(c1cccc(C(F)(F)F)c1)C(F)(F)F (stereo not shown) [I-A-Q2-257],I-A-Q2-257: log P (HCOOH): 5.22
21,Cc1cc(-n2nc(C(F)(F)F)c(-c3c(F)cc(F)cc3F)c2N)ccc1C(=O)NCC(F)(F)C(F)F [I-A-Q2-307],I-A-Q2-307: log P (HCOOH): 3.27
22,Cc1cc(-n2nc(C(F)(F)F)c(-c3cc(Cl)cc(Cl)c3)c2N)ccc1C(=O)NC(Cc1ccccn1)C(F)(F)F (stereo not shown) [I-A-Q2-049],I-A-Q2-049: log P (HCOOH): 4.28

# Same assay, conditions: HCOOH; Table 4, compounds of formula I-A-Q4
row,SMILES,log P (HCOOH)
1,Nc1c(-c2cccc(F)c2)c(C(F)(F)F)nn1-c1ccc(C(=O)O)cc1 [I-A-Q4-097],I-A-Q4-097: log P (HCOOH): 2.88
2,CC(C)Cc1nn(-c2ccc(Cl)cn2)c(N)c1-c1ccc(Cl)cc1 [I-A-Q4-062],I-A-Q4-062: log P (HCOOH): 5.97
3,Nc1c(-c2ccc(Cl)c(F)c2)c(C(F)(F)F)nn1-c1ccc(Cl)cn1 [I-A-Q4-048],I-A-Q4-048: log P (HCOOH): 5.02
4,Nc1c(-c2cc(Cl)cc(Cl)c2)c(C(F)(F)F)nn1-c1ccc(C(=O)O)cn1 [I-A-Q4-064],I-A-Q4-064: log P (HCOOH): 4.23
5,Cc1nn(-c2ccc(Cl)cn2)c(N)c1-c1cc(F)ccc1F [I-A-Q4-033],I-A-Q4-033: log P (HCOOH): 3.84
6,CCS(=O)(=O)c1ccc(-n2nc(C(F)(F)F)c(-c3cc(Cl)cc(Cl)c3)c2N)c(F)c1 [I-A-Q4-019],I-A-Q4-019: log P (HCOOH): 3.94
7,Nc1c(-c2cc(Cl)cc(Cl)c2)c(C(F)(F)F)nn1-c1ccc(S(=O)(=O)NC2CC2)c(Cl)c1 [I-A-Q4-110],I-A-Q4-110: log P (HCOOH): 4.49
8,Nc1c(-c2c(F)cc(F)cc2F)c(C(F)(F)F)nn1-c1ccc(Cl)cn1 [I-A-Q4-046],I-A-Q4-046: log P (HCOOH): 4.46
9,Nc1c(-c2ccc(F)c(F)c2)c(C(F)(F)F)nn1-c1ccc(Cl)cn1 [I-A-Q4-050],I-A-Q4-050: log P (HCOOH): 4.64
10,Nc1c(-c2cc(Cl)cc(Cl)c2)c(C(F)(F)F)nn1-c1ccc(Cl)cn1 [I-A-Q4-014],I-A-Q4-014: log P (HCOOH): 5.76
11,N#Cc1cc(-n2nc(C(F)(F)F)c(-c3cc(Cl)cc(Cl)c3)c2N)ccc1F [I-A-Q4-103],I-A-Q4-103: log P (HCOOH): 4.44
12,COC(=O)c1cnc(-n2nc(C(F)(F)F)c(-c3cc(Cl)cc(Cl)c3)c2N)nc1C(F)(F)F [I-A-Q4-063],I-A-Q4-063: log P (HCOOH): 4.66
13,Nc1c(-c2ccc(Cl)cc2)c(C(F)(F)F)nn1-c1ccc(C(=O)O)cc1 [I-A-Q4-088],I-A-Q4-088: log P (HCOOH): 3.28

# Same assay, conditions: HPLC, reversed-phase C18, mobile phase with formic acid
row,SMILES,log P (HCOOH)
1,Cc1nn(-c2ccc(-n3cncn3)c(C#N)c2)c(N)c1-c1ccccc1 [I-A-Q1-066],I-A-Q1-066: log P (HCOOH): 2.14
2,Nc1c(-c2cc(Cl)cc(Cl)c2)c(C(F)(F)F)nn1-c1ccc(-n2cncn2)c(C(F)(F)F)c1 [I-A-Q1-068],I-A-Q1-068: log P (HCOOH): 4.32
3,N#Cc1cc(-n2nc(C(F)(F)F)c(-c3cc(Cl)cc(Cl)c3)c2N)ccc1-n1cc(Br)cn1 [I-A-Q1-078],I-A-Q1-078: log P (HCOOH): 4.83
4,COC(C)c1nn(-c2ccc(-n3cncn3)c(C#N)c2)c(N)c1-c1cc(Cl)cc(C(F)(F)F)c1 (stereo not shown) [I-A-Q1-023],I-A-Q1-023: log P (HCOOH): 2.76
